From US20260076973A1 (priority 2023, published 2026) come the findings set out here.

pIC50: −log10 of the molar value. Counter-ions that a name gives are not always drawn. Like-named read-outs stand apart in the source and are kept apart here. Where only a bound is given, the exact number is not on record here.

The assay deals with SARS-CoV-2(delta variant). Nature of the assay: microbe, parasite or virus in culture. In kind it is cell-based.
The mark [1] stands for this setting: Severe acute respiratory syndrome coronavirus 2, Vero C1008, read-out: IC50.
Where [2] appears, read: Severe acute respiratory syndrome coronavirus 2, Vero C1008, read-out: IC90.
The mark [3] stands for this setting: Severe acute respiratory syndrome coronavirus 2, Vero C1008.

For `Cc1ccc(Nc2nc(N3CCOCC3)nc(N3CCOCC3)n2)cc1C` [VIRADEM-10884, (3,4-dimethylphenyl)-(4,6-dimorpholin-4-yl-[1,3,5]triazin-2-yl)-amine], under setting [1], the negative-log IC50 (pIC50) was 6.41. Moreover, under setting [2], the IC90 amounted to 477 nM.

Turning to `Cc1ccc(Nc2nc(Nc3ccc(C)c(C)c3)nc(N3CCOCC3)n2)cc1` [VIRADEM-11141], the pIC50 under setting [1] was 6.90. Also, under setting [2], the 90% effect concentration (IC90) was 150 nM.

For the compound `CCOC(=O)c1ccc(Nc2nc(Nc3ccc(F)cc3)nc(N3CCOCC3)n2)cc1` [VIRADEM-11660, 4-[4-(4-Fluorophenylamino)-6-morpholin-4-yl-[1,3,5]triazin-2-ylamino]benzoic acid ethyl ester], the pIC50 under setting [1] is 5.73. For the same compound, the IC90 under setting [2] was over 3000 nM.

As for `Cc1cccc(N2C(N3CCOCC3)=NC(N)=NC2Nc2ccc(Cl)cc2)c1` (stereo not shown) [VIRADEM-11680, N-(4-Chlorophenyl)-6-morpholin-4-yl-N^1-m-tolyl-[1,3,5]triazine-2,4-diamine hydrochloride], under setting [1], the pIC50 was 6.37. The IC90 under setting [2] was 521 nM.

Take `Cc1cccc(N2C(N3CCOCC3)=NC(N)=NC2Nc2cccc(Cl)c2)c1` (stereo not shown) [VIRADEM-11781, N-(3-Chlorophenyl)-6-morpholin-4-yl-N^1-m-tolyl-[1,3,5]triazine-2,4-diamine hydrochloride]: under setting [1], the negative-log IC50 (pIC50) was 5.89. The IC90 under setting [2] amounted to 1370 nM.

Turning to `Cc1ccc(N2C(N3CCOCC3)=NC(N)=NC2Nc2cccc(F)c2)cc1` (stereo not shown) [VIRADEM-11785, N-(3-Fluorophenyl)-6-morpholin-4-yl-N^1-p-tolyl-[1,3,5]triazine-2,4-diamine hydrochloride], the pIC50 under setting [1] was 6.25. Under setting [2], the concentration for an effect of 90% (IC90) was 690 nM.

In the case of `Cc1cccc(N2C(N3CCOCC3)=NC(N)=NC2Nc2cccc(F)c2)c1` (stereo not shown) [VIRADEM-11786, N-(3-Fluorophenyl)-6-morpholin-4-yl-N^1-m-tolyl-[1,3,5]triazine-2,4-diamine hydrochloride], the pIC50 under setting [1] was 6.43. Besides, the IC90 under setting [2] stood at 396 nM.

For `Cc1cccc(N2C(N3CCOCC3)=NC(N)=NC2Nc2ccc(F)cc2)c1` (stereo not shown) [VIRADEM-11787, N-(4-Fluorophenyl)-6-morpholin-4-yl-N^1-m-tolyl-[1,3,5]triazine-2,4-diamine hydrochloride], the pIC50 under setting [1] is 6.39. Moreover, under setting [2], the IC90 is 446 nM.

In the case of `CCOc1ccc(NC2N=C(N)N=C(N3CCOCC3)N2c2cccc(C)c2)cc1` (stereo not shown) [VIRADEM-11794, N-(4-Ethoxyphenyl)-6-morpholin-4-yl-N^1-m-tolyl-[1,3,5]triazine-2,4-diamine hydrochloride], the pIC50 under setting [1] is 6.26. The IC90 under setting [2] was 855 nM.

As for `CC(=O)Nc1ccc(Nc2nc(Nc3ccc(Cl)cc3)nc(N3CCOCC3)n2)cc1` [VIRADEM-11847, N-{4-[4-(4-Chlorophenylamino)-6-morpholin-4-yl-[1,3,5]triazin-2-ylamino]-phenyl}-acetamide], the negative logarithm of the IC50 (pIC50) under setting [1] is 7.44. Further, the IC90 under setting [2] is 46 nM.

As for `CC(=O)c1cccc(Nc2nc(Nc3ccc(Cl)cc3)nc(N3CCOCC3)n2)c1` [VIRADEM-11882, 1-{3-[4-(4-chlorophenylamino)-6-morpholin-4-yl-[1,3,5]triazin-2-ylamino]-phenyl}-ethanone], the pIC50 under setting [1] is 6.33. Further, the IC90 under setting [2] came to 635 nM.

Turning to `CCOC(=O)c1ccc(Nc2nc(Nc3ccc(C)c(C)c3)nc(N3CCOCC3)n2)cc1` [VIRADEM-11913, 4-[4-(3,4-Dimethylphenylamino)-6-morpholin-4-yl-[1,3,5]-2-ylamino]-benzoic acid ethyl ester], the negative-log IC50 (pIC50) (read-out: IC50) was 6.61. For the setting “read-out: IC90”, the IC90 worked out at 331 nM.

As for `Cc1ccc(Nc2nc(Nc3cccc(C(F)(F)F)c3)nc(N3CCOCC3)n2)cc1C` [VIRADEM-11914, N-(3,4-Dimethylphenyl)-6-morpholin-4-yl-N^1-(3-trifluoromethylphenyl)-[1,3,5]triazine-2,4-diamine], the negative-log IC50 (pIC50) under setting [1] was 6.42. In addition, the concentration for an effect of 90% (IC90) under setting [2] amounted to 437 nM.

With `CCOC(=O)c1ccc(Nc2nc(Nc3ccc(C)cc3)nc(N3CCOCC3)n2)cc1` [VIRADEM-11916, 4-(4-Morpholin-4-yl-6-p-tolylamino[1,3,5]-2-ylamino)-benzoic acid ethyl ester], the pIC50 (read-out: IC50) was 6.25. In addition, under “read-out: IC90”, the IC90 came to 707 nM.

As to `CC(=O)Nc1ccc(Nc2nc(Nc3ccc(C)c(C)c3)nc(N3CCOCC3)n2)cc1` [VIRADEM-11918, N-{4-[4-(3,4-Dimethylphenylamino)-6-morpholin-4-yl-[1,3,5]triazin-2-ylamino]phenyl}-acetamide], the pIC50 under setting [1] is 7.39. Moreover, the IC90 under setting [2] stood at 60 nM.

As to `CCOC(=O)c1ccc(Nc2nc(Nc3cc(C)cc(C)c3)nc(N3CCOCC3)n2)cc1` [VIRADEM-11934, 4-[4-(3,5-Dimethylphenylamino)-6-morpholin-4-yl-[1,3,5]-2-ylamino]-benzoic acid ethyl ester], for the setting “read-out: IC50”, the pIC50 was 5.99. The IC90 (read-out: IC90) worked out at 1240 nM.

With `CC(=O)c1cccc(Nc2nc(Nc3ccccc3)nc(N3CCOCC3)n2)c1` [VIRADEM-12125, 1-[3-(4-Morpholin-4-yl-6-phenylamino-[1,3,5]triazin-2-ylamino)-phenyl]-ethanone hydrochloride], the negative-log IC50 (pIC50) under setting [1] is 6.23. Besides, under setting [2], the IC90 was found to be 1370 nM.

`Cc1cccc(Nc2nc(Nc3ccc(C(C)C)cc3)nc(N3CCOCC3)n2)c1` [VIRADEM-12251, N-(4-Isoproylphenyl)-6-morpholin-4-yl-N^1-m-tolyl-[1,3,5]triazine-2,4-diamine hydrochloride]: the pIC50 (read-out: IC50) is 6.02. In addition, for the setting “read-out: IC90”, the IC90 was 1170 nM.

Turning to `COc1cccc(NC2N=C(N)N=C(N3CCOCC3)N2c2ccccc2)c1` (stereo not shown) [VIRADEM-12252, N-(3-Methoxyphenyl)-6-morpholin-4-yl-N^1-phenyl-[1,3,5]triazine-2,4-diamine hydrochloride], under setting [1], the pIC50 is 6.45. The IC90 under setting [2] is 425 nM.

Regarding `COC(=O)c1ccc(Nc2nc(Nc3cccc(OC)c3)nc(N3CCOCC3)n2)cc1` [VIRADEM-12329, 4-[4-(3-Methoxyphenylamino)-6-morpholin-4-yl-[1,3,5]triazin-2-ylamino]-benzoic acid methyl ester], the pIC50 under setting [1] was 6.43. The IC90 under setting [2] worked out at 465 nM.

As to `Cc1ccc(Nc2nc(N3CCCCCC3)nc(N3CCOCC3)n2)cc1` [VIRADEM-15229, (4-Azepan-1-yl-6-morpholin-4-yl-[1,3,5]triazin-2-yl)-p-tolyl-amine], the pIC50 under setting [1] was 5.99. Also, the 90% effect concentration (IC90) under setting [2] was determined as 1190 nM.

On to `Cc1ccc(Nc2nc(N3CCOCC3)nc(N3CCCc4ccccc43)n2)cc1C` [VIRADEM-15278, [4-(3,4-Dihydro-2-H-quinolin-1-yl)-6-morpholin-4-yl-[1,3,5]triazin-2-yl]-(3,4-dimethylphenyl)-amine], for which the pIC50 (read-out: IC50) was 6.71. In addition, the IC90 (read-out: IC90) worked out at 388 nM.

Under setting [3], `COc1ccc(Nc2nc(Nc3cccc(C)c3)nc(N3CCOCC3)n2)cc1` [hydrochloride] had a negative-log IC50 (pIC50) of 6.47 and a 90% effect concentration (IC90) of 356 nM.

The pIC50 is the negative decadic logarithm of the IC50, by convention in mol/L. What is called IC90 is the point of the concentration-response curve where the effect stands at 90%.
